# Source: US20150050210A1 (priority 2012, published 2015)
# Like-named read-outs stand apart in the source and are kept apart here.
# Tests used:
# [1] = mice; cited from earlier work
# [2] = Rat studies to determine oral bioavailability of bendamustine; conditions: male, Sprague-Dawley, in vivo; for AUC(0-inf): read-out: mean AUC0-∞
# Procedure: Rat studies were carried out with the extrudate to determine the oral bioavailability of bendamustine. For this purpose 3 mg/kg bendamustine was applied parenterally to 3 animals and samples were taken at 0, 0.083, 0.25, 0.5, 1, 2, 4, 8 hours and analyzed with a validated HPLC/MS method. Furthermore extrudates of the invention were applied orally to 9 rats with a bendamustine concentration of 10.8 mg/kg. Samples were taken at 0, 0.25, 0.5, 1, 2, 4, 6, 8 hours and analyzed with a validated HPLC/MS method
# [3] = Temperature stability studies of bendamustine; assay type: physicochemical
# Procedure: Temperature stability studies of bendamustine were conducted with treatment of bendamustine at given temperatures for 10 minutes.
# [4] = Compatibility studies of bendamustine with excipients (1:1 binary mixtures); assay type: physicochemical; conditions: for Total impurities %: open container, one month
# Procedure: Compatibility studies of bendamustine with different excipients used in hot melt extrusion process were realised with incubation of 1:1 (w/w) binary mixtures of these excipients with bendamustine at 40° C. 75% RH in an open container for one month.
smiles,measurement,setting,value
"Cn1c(CCCC(=O)O)nc2cc(N(CCCl)CCCl)ccc21 [bendamustine, 4-[5-[Bis(2-chloroethyl)amino]-1-methylbenzimidazol-2-yl]butanoic acid]",oral bioavailability,[1],40%
same,bioavailability,"[2]; iv, 3 mg/kg",100%
same,AUC(0-inf),"[2]; iv, 3 mg/kg",675 ng·h/mL
same,bioavailability,"[2]; po, 10 mg/kg",33%
same,AUC(0-inf),"[2]; po, 10 mg/kg",742 ng·h/mL
same,Assay %,[3]; 70 ° C. for 10 minutes,101.75%
same,Total Impurity %,[3]; 70 ° C. for 10 minutes,0.7%
same,Assay %,[3]; 100 ° C. for 10 minutes,99.216%
same,Total Impurity %,[3]; 100 ° C. for 10 minutes,0.8%
same,Assay %,[3]; 120 ° C. for 10 minutes,97.732%
same,Total Impurity %,[3]; 120 ° C. for 10 minutes,1.3%
same,Total impurities %,"[4]; 1:1 (w/w) mixture with Ascorbic acid, 40° C. 75% RH",0.121%
same,Total impurities %,"[4]; 1:1 (w/w) mixture with Citric acid, 40° C. 75% RH",0.098%
same,Total impurities %,"[4]; 1:1 (w/w) mixture with Ditert butyl methyl phenol, 40° C. 75% RH",0.258%
same,Total impurities %,"[4]; 1:1 (w/w) mixture with Eudragit ® EPO, 40° C. 75% RH",0.154%
same,Total impurities %,"[4]; 1:1 (w/w) mixture with Kollidone VA64, 40° C. 75% RH",0.091%
same,Total impurities %,"[4]; 1:1 (w/w) mixture with PEG 1000, 40° C. 75% RH",0.326%
same,Total impurities %,"[4]; 1:1 (w/w) mixture with PEG 2000, 40° C. 75% RH",0.229%
same,Total impurities %,"[4]; 1:1 (w/w) mixture with Plasdone K12, 40° C. 75% RH",0.124%
same,Total impurities %,"[4]; 1:1 (w/w) mixture with Soluplus, 40° C. 75% RH",0.118%
same,Total impurities %,"[4]; 1:1 (w/w) mixture with Vit E acetate, 40° C. 75% RH",0.101%
same,Compatibility with excipients,"[4]; with large amounts of PEG 2000, PEG 1000 and Diter butyl methyl phenol, 40° C. 75% RH",incompatibility
